Source: patent US8530490B2, “Uracil compound or salt thereof having human deoxyuridine triphosphatase inhibitory activity” (Taiho Pharmaceutical Co., Ltd., priority 2008, dated 2013)

The compounds below were run against human dUTPase (Homo sapiens (Human), UniProt P33316) (assay: Human dUTPase inhibitory effect: production of [5-3H]dUMP from [5-3H]dUTP, measured by HPLC with flow scintillation). Conditions: [5-3H]dUMP production from [5-3H]dUTP, 37° C., 15 minutes.
Chain of human dUTPase (P33316 94-252): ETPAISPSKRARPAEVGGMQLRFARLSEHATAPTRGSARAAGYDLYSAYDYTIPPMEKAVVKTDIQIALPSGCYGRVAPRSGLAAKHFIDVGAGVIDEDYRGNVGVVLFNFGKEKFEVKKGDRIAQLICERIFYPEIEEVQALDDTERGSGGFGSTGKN
Assay type: biochemical
Experimental: The inhibitory activity of the compound of the present invention against human dUTPase was determined by measuring the production of [5-^3H]deoxyuridine monophosphate (hereinafter, referred to as [5-^3H]dUMP) from [5-^3H]deoxyuridine triphosphate (hereinafter, referred to as [5-^3H]dUTP) according to a method shown below.
Specifically, 0.2 mL in total of a solution containing 0.02 mL of 1 μM dUTP (including 588 Bq/mL [5-3H]dUTP), 0.05 mL of a 0.2 M Tris buffer solution (pH 7.4), 0.05 mL of 16 mM magnesium chloride, 0.02 mL of 20 mM 2-mercaptoethanol, 0.02 mL of a 1% aqueous solution of fetal bovine serum-derived albumin, 0.02 mL of varying concentrations of test compound solutions or pure water as a control, and 0.02 mL of a solution of human dUTPase (expressed using E. coli and purified) was reacted at 37° C. for 15 minutes. Immediately after the reaction, the solution was heated at 100° C. for 1 minute to terminate the reaction, followed by centrifugation at 15000 rpm for 2 minutes. An aliquot (150 μL) of the supernatant thus obtained by centrifugation was analyzed using an Atlantis dC18 column (manufactured by Waters Corp., 4.6×250 mm) and a high-performance liquid chromatograph (manufactured by Shimadzu Corp., Prominence). Elution was performed at a flow rate of 0.8 mL/min for 30 minutes by a concentration gradient from a 4:6 mixed solution of a mobile phase A (10 mM potassium dihydrogen phosphate (pH 6.7), 10 mM tetrabutylammonium, and 0.25% methanol) and a mobile phase B (50 mM potassium dihydrogen phosphate (pH 6.7), 5.6 mM tetrabutylammonium, and 30% methanol) to the mobile phase B. The eluate was mixed with a scintillator (manufactured by PerkinElmer Co., Ltd., Ultima-Flo AP) at a 1:2 ratio, and the radioactivity of the produced [5-^3H]dUMP (RT 10.2 min) was measured using Radiomatic Flow Scintillation Analyzer (manufactured by PerkinElmer Co., Ltd., 525TR).
The inhibitory activity of the test compound was determined according to the formula shown below.
`C[C@@H](NS(=O)(=O)CCCOCn1ccc(=O)[nH]c1=O)c1cccc(OC(F)(F)C(F)(F)F)c1` [Example 55, (R)-3-((2,4-dioxo-3,4-dihydropyrimidin-1(2H)-yl)methoxy)-N-(1-(3-(perfluoroethoxy)phenyl)ethyl)propane-1-sulfonamide] showed an IC50 of 410 nM. Compound `C[C@@H](NS(=O)(=O)CCCOCn1ccc(=O)[nH]c1=O)c1cccc(OC(CF)CF)c1` [Example 56, (R)—N-(1-(3-(1,3-difluoropropan-2-yloxy)phenyl)ethyl)-3-((2,4-dioxo-3,4-dihydropyrimidin-1(2H)-yl)methoxy)propane-1-sulfonamide] has an IC50 of 850 nM. With `C#CCOc1cccc([C@@H](C)NS(=O)(=O)CCCOCn2ccc(=O)[nH]c2=O)c1` [Example 57, (R)-3-((2,4-dioxo-3,4-dihydropyrimidin-1(2H)-yl)methoxy)-N-(1-(3-(prop-2-ynyloxy)phenyl)ethyl)propane-1-sulfonamide] the IC50 was 1180 nM. `CC(C)COc1cccc([C@@H](C)NS(=O)(=O)CCCOCn2ccc(=O)[nH]c2=O)c1` [Example 58, (R)-3-((2,4-dioxo-3,4-dihydropyrimidin-1(2H)-yl)methoxy)-N-(1-(3-isobutoxyphenyl)ethyl)propane-1-sulfonamide] gave an IC50 of 310 nM. In the case of `CC[C@H](C)COc1cccc([C@@H](C)NS(=O)(=O)CCCOCn2ccc(=O)[nH]c2=O)c1` [Example 59, 3-((2,4-dioxo-3,4-dihydropyrimidin-1(2H)-yl)methoxy)-N—((R)-1-(3-((S)-2-methylbutoxy)phenyl)ethyl)propane-1-sulfonamide], the IC50 is reported as 720 nM. `C[C@@H](NS(=O)(=O)CCCOCn1ccc(=O)[nH]c1=O)c1cccc(OCC2(C)CC2)c1` [Example 60, (R)-3-((2,4-dioxo-3,4-dihydropyrimidin-1(2H)-yl)methoxy)-N-(1-(3-((1-methylcyclopropyl)methoxy)phenyl)ethyl)propane-1-sulfonamide] gave an IC50 of 490 nM. `C[C@@H](NS(=O)(=O)CCCOCn1ccc(=O)[nH]c1=O)c1cccc(OCC(F)F)c1` [Example 61, (R)—N-(1-(3-(2,2-difluoroethoxy)phenyl)ethyl)-3-((2,4-dioxo-3,4-dihydropyrimidin-1(2H)-yl)methoxy)propane-1-sulfonamide] showed an IC50 of 140 nM. Work on `C#C[C@H](C)Oc1cccc([C@@H](C)NS(=O)(=O)CCCOCn2ccc(=O)[nH]c2=O)c1` [Example 62, N—((R)-1-(3-((S)-but-3-yn-2-yloxy)phenyl)ethyl)-3-((2,4-dioxo-3,4-dihydropyrimidin-1(2H)-yl)methoxy)propane-1-sulfonamide] yielded an IC50 of 370 nM. `C#C[C@@H](C)Oc1cccc([C@@H](C)NS(=O)(=O)CCCOCn2ccc(=O)[nH]c2=O)c1` [Example 63, N—((R)-1-(3-((R)-but-3-yn-2-yloxy)phenyl)ethyl)-3-((2,4-dioxo-3,4-dihydropyrimidin-1(2H)-yl)methoxy)propane-1-sulfonamide] gave an IC50 of 470 nM. `C[C@@H](NS(=O)(=O)CCCOCn1ccc(=O)[nH]c1=O)c1cccc(OCC2CCCC2)c1` [Example 65, (R)—N-(1-(3-(cyclopentylmethoxy)phenyl)ethyl)-3-((2,4-dioxo-3,4-dihydropyrimidin-1(2H)-yl)methoxy)propane-1-sulfonamide] was tested, and the IC50 was 1000 nM. `CC[C@@H](C)Oc1cccc([C@@H](C)NS(=O)(=O)CCCOCn2ccc(=O)[nH]c2=O)c1` [Example 66, N—((R)-1-(3-((R)-1-methylpropoxy)phenyl)ethyl)-3-((2,4-dioxo-3,4-dihydropyrimidin-1(2H)-yl)methoxy)propane-1-sulfonamide] was tested, and the IC50 was 460 nM. For `CC[C@H](C)Oc1cccc([C@@H](C)NS(=O)(=O)CCCOCn2ccc(=O)[nH]c2=O)c1` [Example 67, N—((R)-1-(3-((s)-1-methylpropoxy)phenyl)ethyl)-3-((2,4-dioxo-3,4-dihydropyrimidin-1(2H)-yl)methoxy)propane-1-sulfonamide], the IC50 was 430 nM. `C[C@@H](NS(=O)(=O)CCCOCn1ccc(=O)[nH]c1=O)c1ccc(F)c(OCC(F)F)c1` [Example 68, (R)—N-(1-(3-(2,2-difluoroethoxy)-4-fluorophenyl)ethyl)-3-((2,4-dioxo-3,4-dihydropyrimidin-1(2H)-yl)methoxy)propane-1-sulfonamide] showed an IC50 of 110 nM. Compound `C=CCOc1cccc([C@@H](C)NS(=O)(=O)CCCOCn2ccc(=O)[nH]c2=O)c1` [Example 69, (R)—N-(1-(3-(allyloxy)phenyl)ethyl)-3-((2,4-dioxo-3,4-dihydropyrimidin-1(2H)-yl)methoxy)propane-1-sulfonamide] has an IC50 of 740 nM. Work on `CCC[C@H](C)Oc1cccc([C@@H](C)NS(=O)(=O)CCCOCn2ccc(=O)[nH]c2=O)c1` [Example 70, 3-((2,4-dioxo-3,4-dihydropyrimidin-1(2H)-yl)methoxy)-N—((R)-1-(3-((S)-pentan-2-yloxy)phenyl)ethyl)propane-1-sulfonamide] yielded an IC50 of 760 nM. With `CCC[C@@H](C)Oc1cccc([C@@H](C)NS(=O)(=O)CCCOCn2ccc(=O)[nH]c2=O)c1` [Example 71, 3-((2,4-dioxo-3,4-dihydropyrimidin-1(2H)-yl)methoxy)-N—((R)-1-(3-((R)-pentan-2-yloxy)phenyl)ethyl)propane-1-sulfonamide] the IC50 was 930 nM. Work on `C[C@@H](NS(=O)(=O)CCCOCn1ccc(=O)[nH]c1=O)c1cccc(OCC(F)(F)C(F)(F)F)c1` [Example 72, (R)-3-((2,4-dioxo-3,4-dihydropyrimidin-1(2H)-yl)methoxy)-N-(1-(3-(2,2,3,3,3-pentafluoropropoxy)phenyl)ethyl)propane-1-sulfonamide] yielded an IC50 of 660 nM. Compound `C[C@@H](NS(=O)(=O)CCCOCn1ccc(=O)[nH]c1=O)c1cccc(OCCC2CC2)c1` [Example 73, (R)—N-(1-(3-(2-cyclopropylethoxy)phenyl)ethyl)-3-((2,4-dioxo-3,4-dihydropyrimidin-1(2H)-yl)methoxy)propane-1-sulfonamide] has an IC50 of 510 nM. `O=c1ccn(COCCCS(=O)(=O)NC(c2ccccc2)c2ccccc2)c(=O)[nH]1` [Example 76, N-benzhydryl-3-((2,4-dioxo-3,4-dihydropyrimidin-1(2H)-yl)methoxy)propane-1-sulfonamide] showed an IC50 of 2100 nM. `Cc1ccccc1C(NS(=O)(=O)CCCOCn1ccc(=O)[nH]c1=O)c1ccccc1` (stereo not shown) [Example 77, 3-((2,4-dioxo-3,4-dihydropyrimidin-1(2H)-yl)methoxy)-N-(phenyl(o-tolyl)methyl)propane-1-sulfonamide] showed an IC50 of 5690 nM. `O=c1ccn(COCCCS(=O)(=O)NC(c2ccc(F)cc2)c2ccc(F)cc2)c(=O)[nH]1` [Example 78, N-(bis(4-fluorophenyl)methyl)-3-((2,4-dioxo-3,4-dihydropyrimidin-1(2H)-yl)methoxy)propane-1-sulfonamide] was tested, and the IC50 was 2580 nM. For `O=c1ccn(COCCCS(=O)(=O)N2CCC[C@@H]2C(c2ccccc2)c2ccccc2)c(=O)[nH]1` [Example 79, (R)-1-((3-(2-benzhydrylpyrrolidin-1-ylsulfonyl)propoxy)methyl)pyrimidine-2,4(1H, 3H)-dione], the IC50 was 1650 nM. `CC(C)C[C@@H](NS(=O)(=O)CCCOCn1ccc(=O)[nH]c1=O)C(O)(c1ccccc1)c1ccccc1` [Example 80, (R)-3-((2,4-dioxo-3,4-dihydropyrimidin-1(2H)-yl)methoxy)-N-(1-hydroxy-4-methyl-1,1-diphenylpentan-2-yl)propane-1-sulfonamide] gave an IC50 of 1300 nM. In the case of `O=c1ccn(COCCCS(=O)(=O)NC2(c3ccccc3)CCCC2)c(=O)[nH]1` [Example 81, 3-((2,4-dioxo-3,4-dihydropyrimidin-1(2H)-yl)methoxy)-N-(1-phenylcyclopentyl)propane-1-sulfonamide], the IC50 is reported as 9440 nM. For `CC[C@@H](NS(=O)(=O)CCCOCn1ccc(=O)[nH]c1=O)c1ccccc1` [Example 83, (R)-3-((2,4-dioxo-3,4-dihydropyrimidin-1(2H)-yl)methoxy)-N-(1-phenylpropyl)propane-1-sulfonamide], the IC50 was 4780 nM. `C[C@@H](NS(=O)(=O)CCCOCn1ccc(=O)[nH]c1=O)c1cccc(F)c1` [Example 87, (R)-3-((2,4-dioxo-3,4-dihydropyrimidin-1(2H)-yl)methoxy)-N-(1-(3-fluorophenyl)ethyl)propane-1-sulfonamide] was tested, and the IC50 was 7130 nM. In the case of `O=c1ccn(COCCCS(=O)(=O)NC(c2ccccc2)c2cccc(F)c2)c(=O)[nH]1` (stereo not shown) [Example 93, 3-((2,4-dioxo-3,4-dihydropyrimidin-1(2H)-yl)methoxy)-N-((3-fluorophenyl)(phenyl)methyl)propane-1-sulfonamide], the IC50 is reported as 4630 nM. With `O=c1ccn(Cc2ccc(S(=O)(=O)NC(c3ccccc3)c3ccccc3)cc2)c(=O)[nH]1` [Example 96, N-benzhydryl-4-((2,4-dioxo-3,4-dihydropyrimidin-1(2H)-yl)methyl)benzenesulfonamide] the IC50 was 4620 nM.
